In patent US20110269793A1, “METHOD FOR PREVENTING TAU PROTEIN AGGREGATION AND TREATING ALZHEIMER'S DISEASE WITH A QUINOLINE DERIVATIVE COMPOUND” (priority 2010, published 2011):
pKd, pKi: −log10 of the molar value. Where two headings read alike, the source gives them in different places.

Assays:
[1] = molecular target: mGluR I (Homo sapiens, UniProt Q13255); details: Yanamala et al. 2008; cited from earlier work
[2] = molecular target: Human PHFs; assay: Scatchard saturation test with ^3H-AST, PHFs; assay type: binding
Source text: (§1) Interactions of quinolines with tau and in vitro displacement tests with H^3-AST. In previous laboratory tests by the inventor and also from other authors (Okamura N., Suemoto T., Furumoto S., Suzuki M., Shimadzu H., Akatsu H., Yamamoto T., Fujiwara H., Nemoto M., Maruyama M., Arai H., Yanai K., Sawada T., Kudo Y. (2005), Quinoline and becimidazole derivatives: candidate probes for in vivo imaging of tau pathology in Alzheimer's disease, J. Neurosci. 25: 10857-10862; Rojo L., Avila M., Chandia M., and Maccioni R. B. (2007), ^18F Lansoprazole as PET radiotracer, Chemical and biological studies towards the development of a New PET Radiotracer, International Conference on Clinical PET and Molecular Nuclear Medicine. 10-14 November, Bangkok) the Kd and binding maximums specific to some benzimidazols of clinical use were established, among them [O-methyl-3H]-astemizol (FIG. 2) through the interaction established with the tau protein. With this background Scatchard and displacement tests are performed with the quinolines mentioned before.
(§2) For the Scatchard test a fixed tau protein concentration (230 nM) and variable concentrations of ^3H-AST between 10 and 120 nM was used, leading to a final volume of 20 μL with 8% ethanol (EtOH 8%). The tau protein underwent treatment previous to this test, incubating the same at 37° C. under gentle agitation for 7 days. Subsequently the tau protein and ^3H-AST were incubated for 4 h at 25° C. under gentle agitation. Then this solution was filtered under vacuum for 10 minutes and the filtering papers were dried at room temperature, and transferred to a vial with 1.0 mL of scintillating liquid. It is then left in the dark and finally the counts per minute (cpm) are measured in a scintillating counting equipment.

[3] = molecular target: Human Tau (441a.a.) (Homo sapiens, UniProt P10636); assay: Scatchard saturation test with ^3H-AST, tau filaments; assay type: binding; details: for Affinity to tau filaments (in words): saturation studies, FIG. 12
Chain of Human Tau (441a.a.) (P10636 1-441 isoform P10636-8): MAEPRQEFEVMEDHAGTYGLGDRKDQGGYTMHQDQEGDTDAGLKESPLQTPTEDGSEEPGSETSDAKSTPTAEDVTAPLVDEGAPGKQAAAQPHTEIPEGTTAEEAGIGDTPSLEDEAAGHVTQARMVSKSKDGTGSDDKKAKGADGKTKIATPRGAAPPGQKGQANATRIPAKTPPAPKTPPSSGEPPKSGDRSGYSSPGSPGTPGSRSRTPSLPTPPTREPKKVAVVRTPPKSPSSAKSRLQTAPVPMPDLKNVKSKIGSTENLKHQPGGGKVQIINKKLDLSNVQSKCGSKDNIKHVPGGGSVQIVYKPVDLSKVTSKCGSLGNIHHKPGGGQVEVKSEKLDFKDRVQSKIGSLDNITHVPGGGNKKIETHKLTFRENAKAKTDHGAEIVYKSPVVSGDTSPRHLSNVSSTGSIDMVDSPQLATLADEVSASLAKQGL
Source text: as §1, §2

[4] = tested on: tau protein from bovine brain; details: 7 days 37° C.; for Tau polymer concentration: tau 2.0 mg/mL, heparin 200 μg/mL, +control 3.00, −control 1.38
Protocol: (§3) Effect of the quinolines in the tau aggregation. Turbidimetric studies. Tau aggregation was monitored by means of its absorbance at λ 340 nm using UV spectrophotometry. Purified and highly concentrated tau protein from bovine brain (2.0 mg/mL) was re-suspended in MES 0.1 M pH 7.2 buffer and induced to polymerize in the form of PHFs in the presence of polyanions (heparin at a concentration of 200 μg/mL) at a final volume of 1.0 mL. This mixture was incubated at 37° C. and maintained under gentle agitation for 7 days. At the same time, another sample containing the tau protein, heparin (200 μg/mL) and the selected quinoline at different concentrations from 1.0 to 50 μM and a final volume of 1.0 mL was incubated in the same way, thus verifying the effect that quinolines have over tau aggregation. […] As an additional control the tau protein was replaced with water in order to measure the absorbance of these quinolines. Each sample was carried out in triplicate.
Effect of quinolines in tau aggregation. Sedimentation studies. After 7 days of incubation at 37° C. under gentle agitation, the sedimentation of the tau aggregates was conducted in the presence and in absence of quinolines. To this purpose, 400 μl were taken of each one of the samples prepared for the turbidimetric analysis and they were centrifuged at 42,000 g (18.000 rpm using the AH-650 rotor) at 37° C. for 25 min. The pellet obtained from each sample of this centrifugation was re-suspended in 50 μL of MES 0,1 M slightly alkaline (pH 7.2) buffer and the concentration of protein was established for each one of them. In this procedure, and because the sample volume is very small, a nanophotometer was used, measuring the concentration of the sedimented and re-suspended protein at λ 280 nm.

[5] = Octanol/water partition coefficient (Log P); assay type: physicochemical; details: for logP: n-octanol / PBS 0.1× buffer, read-out: Log P (experimental); for Liposolubility expressed as Log P (in words): as candidates to cross the BHE
Protocol: Pharm. Hung. 62 (1-2): 55-64, wherein 2 phases are used, an aqueous phase comprising a buffer solution PBS 0.1× pH 7.4 that is saturated with an n-octanol solution that comprises the organic phase.
Stock solutions at 1.0 mg/mL of each quinoline being studied were prepared in PBS buffer 0.1× pH 7.4 saturated in octanol. […] Starting from these solutions, dilutions were made for a range concentration of between 1.0 mg/mL and 100 μg/mL to establish their maximum absorbance in the UV-visible region.
Then the tested quinolines were dissolved in PBS 0.1× pH 7.4 saturated in n-octanol and agitated for 30 min. at room temperature. Subsequently, this emulsion was left to settle for 48 h and a centrifugation at 3,000 rpm for 10 minutes was carried out to separate the phases. Both the octanol/water partition coefficient and Log P were established using the difference in the absorbance in the UV-visible region for each compound using equation 1:
[THQ in octanol]=[THQ start]−[THQ buffer] Éq. 1:
The concentrations for THQ start are established using equation 2: […]
Subsequently, the P quotient in established between both phases as described by equation 3: […]
Finally the partition coefficient is established by Log P.
For this test 2 controls were used: clidinium bromide that is a quaternary amine that is not liposoluble, and sodium thiopental, which is a very liposoluble barbituric anaesthetic. Each part of the test was done in triplicate.

[6] = molecular target: mGluR 5 (Homo sapiens, UniProt P41594); details: Yanamala et al. 2008; cited from earlier work
Chain of mGluR 5 (P41594 21-1212): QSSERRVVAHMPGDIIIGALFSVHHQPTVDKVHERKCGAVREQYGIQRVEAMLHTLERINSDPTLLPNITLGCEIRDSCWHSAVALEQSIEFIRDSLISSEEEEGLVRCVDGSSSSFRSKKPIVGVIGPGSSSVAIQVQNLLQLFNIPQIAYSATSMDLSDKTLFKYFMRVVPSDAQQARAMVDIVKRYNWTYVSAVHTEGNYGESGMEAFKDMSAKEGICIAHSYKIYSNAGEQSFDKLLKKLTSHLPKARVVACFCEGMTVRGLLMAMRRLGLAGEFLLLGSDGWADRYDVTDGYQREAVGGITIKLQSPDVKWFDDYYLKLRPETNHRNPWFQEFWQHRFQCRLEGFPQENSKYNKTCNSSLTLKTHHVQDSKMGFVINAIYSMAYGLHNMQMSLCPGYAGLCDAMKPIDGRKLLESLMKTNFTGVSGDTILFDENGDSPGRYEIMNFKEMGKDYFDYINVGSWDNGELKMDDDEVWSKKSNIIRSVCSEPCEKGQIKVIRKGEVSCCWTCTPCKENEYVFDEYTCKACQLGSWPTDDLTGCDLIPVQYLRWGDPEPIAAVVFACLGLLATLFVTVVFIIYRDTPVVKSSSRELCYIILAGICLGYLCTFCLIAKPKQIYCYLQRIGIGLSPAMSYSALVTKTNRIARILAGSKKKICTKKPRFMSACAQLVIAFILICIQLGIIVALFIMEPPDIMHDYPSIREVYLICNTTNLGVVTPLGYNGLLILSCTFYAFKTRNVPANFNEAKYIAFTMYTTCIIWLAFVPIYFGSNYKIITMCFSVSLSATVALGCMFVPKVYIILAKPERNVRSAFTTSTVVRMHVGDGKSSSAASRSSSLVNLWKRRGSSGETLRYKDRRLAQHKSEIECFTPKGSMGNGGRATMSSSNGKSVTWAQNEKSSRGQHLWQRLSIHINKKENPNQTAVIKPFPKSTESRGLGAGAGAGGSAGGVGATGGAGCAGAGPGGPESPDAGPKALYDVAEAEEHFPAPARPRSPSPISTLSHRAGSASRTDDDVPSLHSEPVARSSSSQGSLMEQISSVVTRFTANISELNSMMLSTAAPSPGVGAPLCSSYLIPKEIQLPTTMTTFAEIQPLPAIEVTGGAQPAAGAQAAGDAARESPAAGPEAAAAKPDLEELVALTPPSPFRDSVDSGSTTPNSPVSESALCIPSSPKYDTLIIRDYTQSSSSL

[7] = molecular target: T1, hTau protein (Homo sapiens, UniProt P10636); details: hTau 230 nM, ^3H-AST 52 nM, cold ligand 10 nM to 10 μM
T1 sequence (P10636 with tags, fused parts or gaps): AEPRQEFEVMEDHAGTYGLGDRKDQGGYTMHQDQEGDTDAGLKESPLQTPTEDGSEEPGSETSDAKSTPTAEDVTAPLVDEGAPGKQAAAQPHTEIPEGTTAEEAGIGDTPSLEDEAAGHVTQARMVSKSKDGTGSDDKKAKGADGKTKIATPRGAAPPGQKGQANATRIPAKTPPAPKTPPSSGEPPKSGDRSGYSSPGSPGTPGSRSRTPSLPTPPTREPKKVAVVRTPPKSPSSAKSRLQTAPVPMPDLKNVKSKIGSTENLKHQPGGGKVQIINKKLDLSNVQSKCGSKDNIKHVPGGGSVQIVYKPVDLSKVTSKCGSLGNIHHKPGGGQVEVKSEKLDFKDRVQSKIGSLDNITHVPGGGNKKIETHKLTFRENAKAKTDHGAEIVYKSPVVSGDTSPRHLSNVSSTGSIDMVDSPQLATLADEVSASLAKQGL
Protocol: (§4) Subsequently, the tau protein, ^3H-AST and the quinolines are incubated for 4 hours at 25° C. under gentle agitation and the procedure depicted in FIG. 3 is followed.

[8] = molecular target: T1, hTau protein; assay: biochemical
Protocol: as §4

[9] = tested on: tau protein from bovine brain; details: THQ 55 1.0 to 50 μM, FIG. 11
Protocol: as §3

[10] = tau filaments induced with heparin
[11] = partition coefficient octanol/PBS buffer 0.1× pH 7.4, triplicate

Chain of mGluR I (Q13255 19-1194): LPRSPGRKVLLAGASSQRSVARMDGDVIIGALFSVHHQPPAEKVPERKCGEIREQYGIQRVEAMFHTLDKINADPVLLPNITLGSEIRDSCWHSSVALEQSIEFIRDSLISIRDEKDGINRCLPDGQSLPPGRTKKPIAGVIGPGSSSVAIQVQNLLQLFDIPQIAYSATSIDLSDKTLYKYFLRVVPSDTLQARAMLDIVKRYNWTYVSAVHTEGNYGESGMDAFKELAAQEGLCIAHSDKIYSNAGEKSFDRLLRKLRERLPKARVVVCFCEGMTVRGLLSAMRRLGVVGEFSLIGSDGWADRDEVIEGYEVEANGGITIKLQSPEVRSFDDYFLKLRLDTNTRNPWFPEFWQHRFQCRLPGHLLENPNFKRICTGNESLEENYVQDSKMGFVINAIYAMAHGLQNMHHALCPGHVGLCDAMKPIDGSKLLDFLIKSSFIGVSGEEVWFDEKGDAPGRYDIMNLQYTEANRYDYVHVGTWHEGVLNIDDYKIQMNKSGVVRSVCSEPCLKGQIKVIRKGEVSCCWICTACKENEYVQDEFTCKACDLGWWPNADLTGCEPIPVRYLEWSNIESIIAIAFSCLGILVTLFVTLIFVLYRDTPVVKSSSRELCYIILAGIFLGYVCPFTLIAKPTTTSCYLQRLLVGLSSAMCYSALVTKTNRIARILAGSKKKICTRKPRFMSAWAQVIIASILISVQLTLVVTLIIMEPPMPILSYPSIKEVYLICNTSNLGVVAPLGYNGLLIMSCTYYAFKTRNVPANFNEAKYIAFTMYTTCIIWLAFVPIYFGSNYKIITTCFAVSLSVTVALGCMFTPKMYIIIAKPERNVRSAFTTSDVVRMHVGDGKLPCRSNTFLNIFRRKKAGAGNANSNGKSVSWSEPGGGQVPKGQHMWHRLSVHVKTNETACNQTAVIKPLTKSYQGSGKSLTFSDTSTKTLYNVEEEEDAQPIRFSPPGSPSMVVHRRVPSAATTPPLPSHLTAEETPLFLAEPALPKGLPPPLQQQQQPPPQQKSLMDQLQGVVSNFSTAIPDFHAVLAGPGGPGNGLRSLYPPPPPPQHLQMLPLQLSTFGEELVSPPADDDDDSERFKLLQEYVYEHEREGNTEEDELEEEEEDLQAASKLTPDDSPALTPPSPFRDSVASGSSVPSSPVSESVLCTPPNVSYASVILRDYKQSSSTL

## O=C(Cc1ccccc1)c1ccc2nc3c(cc2c1)CCCO3 [R214127]
[1]
  Docking Energies: -7.34 kcal/mol

## COc1ccc(CCN2CCC(Nc3nc4ccccc4n3Cc3ccc(F)cc3)CC2)cc1 [^3H-AST, [O-methyl-3H]-astemizol]
[2]
  pKd: 8.40
[3]; [10]
  pKd: 8.73

## COc1ccc(CCN2CCC(Nc3nc4ccccc4n3Cc3ccc(F)cc3)CC2)cc1 [Ast, Astemizol, reference compound]
[4]; compound 10 μM
  Tau polymer concentration: 2.84 + 0.002 mg/mL
[3]
  Affinity to tau filaments (in words): high affinity

## COc1ccc2nc(-c3ccc(C)cc3)ccc2c1 [THQ 3S, 2-(4-methylphenyl), 6-(O-methyl)quinoline]
[5]; [11]
  Log P (experimental): 0.434 + 0.005

## Cc1cccc(C#Cc2ccccc2)n1 [MPEP]
[6]
  Docking Energies: -7.77 kcal/mol

## Cc1ccc(-c2ccc3cccc(Br)c3n2)cc1 [THQ 9S, 2-(4-methylphenyl), 8-(bromo)quinoline]
[5]; [11]
  logP: -0.214

## Cc1cccc(-c2ccc3cc(C)ccc3n2)c1 [THQ 12S, 2-(5-methylphenyl), 6-(methyl)quinoline]
[5]
  Liposolubility expressed as Log P (in words): optimal
[5]; [11]
  logP: 2.58

## [3H]COc1ccc(CCN2CCC(Nc3nc4ccccc4n3Cc3ccc(F)cc3)CC2)cc1 [^3H-AST, [O-methyl-3H]-astemizol]
[2]
  Bmax: 13.07 nM
  Bmax/Kd index: 3.316
[3]
  Bmax/Kd index: 3.00
  Affinity to tau filaments (in words): high affinity
[3]; [10]
  Bmax: 5.7 pmol/nmol tau

## Cc1ccc(-c2ccc3cc(C)ccc3n2)cc1 [THQ 4S, 2-(4methylphenyl), 6-(methyl)quinoline]
[7]
  Displacement of the radioligand: do not displace the radioligand
[8]
  pKi: < 5.00
[5]
  Liposolubility expressed as Log P (in words): optimal
[5]; [11]
  logP: 2.66

## Cc1ccc2nc(-c3ccc(N)cc3)ccc2c1 [THQ 55, 2-(4-aminophenyl), 6-(methyl)quinoline]
[4]
  Effect over the auto-aggregation of tau protein (sedimented protein at λ 280 nm): pronounced inhibitory effect
[4]; compound 1.0 μM
  Tau polymer concentration: 2.72 + 0.002 mg/mL
[4]; compound 10 μM
  Tau polymer concentration: 2.43 + 0.003 mg/mL
[4]; compound 50.0 μM
  Tau polymer concentration: 0.79 + 0.004 mg/mL
[7]
  Displacement of the radioligand: do not displace the radioligand
[8]
  pKi: < 5.00
[9]
  Inhibition of tau aggregation (absorbance at λ 340): high capacity to inhibit tau aggregation
[5]
  Liposolubility expressed as Log P (in words): optimal
[5]; [11]
  logP: 1.97
